Reference: patent publication US9066518B2, “Heterocyclic compounds as pesticides” (Bayer CropScience AG, priority 2009, dated 2015)

Tested on: green peach aphid (Myzus persicae)
Assay: Myzus test (spray treatment)
Type: in vivo
Details: foliar, 144 h, application rate 100 g/ha, after 6 days, Chinese cabbage leaf discs, read-out: activity (effect in %, aphids killed)
Method: Solvents: 78 parts by weight of acetone
• 1.5 parts by weight of dimethylformamide Emulsifier 0.5 part by weight of alkylaryl polyglycol ether
To produce a suitable preparation of active compound, 1 part by weight of active compound is mixed with the stated amounts of solvents and emulsifier, and the concentrate is diluted with emulsifier-containing water to the desired concentration. Discs of leaves of Chinese cabbage (Brassica pekinensis) which are infested by all stages of the green peach aphid (Myzus persicae) are sprayed with an active compound preparation of the desired concentration.
After 6 days, the effect in % is determined. 100% means that all aphids have been killed; 0% means that none of the aphids has been killed.

Going from FC(F)(F)COc1cccc(-c2cnn(-c3cccnc3)c2)n1 [Example 25] to c1cncc(-n2cc(-c3cccc(C4=NOCCO4)n3)cn2)c1 [Example 55], the pest or weed control at 100 g/ha rises from 80% to 100%.

Same assay, conditions: foliar, 144 h, application rate 500 g/ha, after 6 days, Chinese cabbage leaf discs, read-out: activity (effect in %, aphids killed)

FC(F)(F)C(F)(F)c1nccc(-c2cnn(-c3cccnc3)c2)n1 [Example 9, 2-(Pentafluoroethyl)-4-[1-(pyridin-3-yl)-1H-pyrazol-4-yl]pyrimidine] and FC(F)(F)c1nccc(-c2cnn(-c3cccnc3)c2)n1 [Example 15] are the same in pest or weed control at 500 g/ha: 100% for the first, 100% for the second.

First: COCC(F)(F)c1cccc(-c2cnn(-c3cccnc3)c2)n1 [Example 11, 2-(1,1-Difluoro-2-methoxyethyl)-6-(1-pyridin-3-yl-1H-pyrazol-4-yl)pyridine]
Second: CC(F)(F)c1cccc(-c2cnn(-c3cccnc3)c2)n1 [Example 29]
The pest or weed control at 500 g/ha of the first is higher: 100% for the first, 90% for the second.

c1ccc(-c2cnn(-c3cccnc3)c2)nc1 [Example 12] and Brc1cccc(-c2cnn(-c3cccnc3)c2)n1 [Example 24] are the same in pest or weed control at 500 g/ha: 100% for the first, 100% for the second.

Going from c1cncc(-n2cc(-c3cccc(C4OCCCO4)n3)cn2)c1 [Example 13] to c1cncc(-n2cc(-c3cccc(C4OCCO4)n3)cn2)c1 [Example 36], the pest or weed control at 500 g/ha rises from 90% to 100%.

Going from Fc1cncc(-n2cc(-c3cccc(-c4ncccn4)n3)cn2)c1 [Example 14] to Ic1cncc(-n2cc(-c3cccc(-c4ncccn4)n3)cn2)c1 [Example 37], the pest or weed control at 500 g/ha rises from 90% to 100%.

CN(C)C(=O)c1cccc(-c2cnn(-c3cccnc3)c2)n1 [Example 17] and COc1cccc(-c2cnn(-c3cccnc3)c2)n1 [Example 38] are the same in pest or weed control at 500 g/ha: 100% for the first, 100% for the second.

O=C(c1cccc(-c2cnn(-c3cccnc3)c2)n1)N1CCOCC1 [Example 18] and COC(OC)c1cccc(-c2cnn(-c3cccnc3)c2)n1 [Example 45] are the same in pest or weed control at 500 g/ha: 100% for the first, 100% for the second.

c1cncc(-n2cc(-c3cccc(-n4cccn4)n3)cn2)c1 [Example 19] and Cc1cc(C)n(-c2cccc(-c3cnn(-c4cccnc4)c3)n2)n1 [Example 21] are the same in pest or weed control at 500 g/ha: 100% for the first, 100% for the second.

c1ccc(-c2ccn(-c3cnn(-c4cccnc4)c3)n2)nc1 [Example 23] and Clc1cccnc1-n1ccc(-c2cnn(-c3cccnc3)c2)n1 [Example 42] are the same in pest or weed control at 500 g/ha: 100% for the first, 100% for the second.

Going from Cc1nn(-c2cccnc2)cc1-n1ccc(C(F)(F)F)n1 [Example 26] to FC(F)(F)c1ccnc(-c2cnn(-c3cccnc3)c2)n1 [Example 35], the pest or weed control at 500 g/ha falls from 100% to 80%.

Going from CC(C)(C)OC(=O)Nc1cccc(-c2cnn(-c3cccnc3)c2)n1 [Example 27] to CC(F)(F)c1ccc(-c2cnn(-c3cccnc3)c2)nc1 [Example 40], the pest or weed control at 500 g/ha falls from 100% to 90%.

COc1ccnc(-n2ccc(-c3cnn(-c4cccnc4)c3)n2)n1 [Example 28] and c1cnc(-n2ccc(-c3cnn(-c4cccnc4)c3)n2)nc1 [Example 33] are the same in pest or weed control at 500 g/ha: 100% for the first, 100% for the second.

Going from Fc1cnc(-n2ccc(-c3cnn(-c4cccnc4)c3)n2)nc1 [Example 31] to FC(F)(F)c1ccc(-n2ccc(-c3cnn(-c4cccnc4)c3)n2)nc1 [Example 43], the pest or weed control at 500 g/ha falls from 100% to 90%.

c1cncc(-c2cnn(-c3cccnc3)c2)c1 [Example 39] and COc1cc(OC)nc(-c2nccc(-c3cnn(-c4cccnc4)c3)n2)n1 [Example 44] are the same in pest or weed control at 500 g/ha: 100% for the first, 100% for the second.

Tested on: not listed separately
Assay: logP determination (neutral / HCOOH)
Details: HCOOH (formic acid), logP (HCOOH), HCOOH

First: c1ccc(-c2cnn(-c3cccnc3)c2)nc1 [Example 12]
Second: Brc1cccc(-c2cnn(-c3cccnc3)c2)n1 [Example 24]
The chromatographic logP of the first is lower: 0.81 for the first, 2.18 for the second.

c1cncc(-n2cc(-c3cccc(C4OCCCO4)n3)cn2)c1 [Example 13] and c1cncc(-n2cc(-c3cccc(C4OCCO4)n3)cn2)c1 [Example 36] are within 0.2 log units of each other in chromatographic logP: 1.59 for the first, 1.5 for the second.

Compared with Fc1cncc(-n2cc(-c3cccc(-c4ncccn4)n3)cn2)c1 [Example 14], Ic1cncc(-n2cc(-c3cccc(-c4ncccn4)n3)cn2)c1 [Example 37] is higher in chromatographic logP: 1.81 for the first, 2.37 for the second.

FC(F)(F)c1nccc(-c2cnn(-c3cccnc3)c2)n1 [Example 15] and FC(F)(F)c1ccnc(-c2cnn(-c3cccnc3)c2)n1 [Example 35] are within 0.2 log units of each other in chromatographic logP: 2.13 for the first, 2.23 for the second.

First: CN(C)C(=O)c1cccc(-c2cnn(-c3cccnc3)c2)n1 [Example 17]
Second: COc1cccc(-c2cnn(-c3cccnc3)c2)n1 [Example 38]
The chromatographic logP of the first is lower: 1.24 for the first, 2.12 for the second.

O=C(c1cccc(-c2cnn(-c3cccnc3)c2)n1)N1CCOCC1 [Example 18] and c1cncc(-n2cc(-c3cccc(C4=NOCCO4)n3)cn2)c1 [Example 55] are within 0.2 log units of each other in chromatographic logP: 1.23 for the first, 1.4 for the second.

Going from c1cncc(-n2cc(-c3cccc(-n4cccn4)n3)cn2)c1 [Example 19] to Cc1cc(C)n(-c2cccc(-c3cnn(-c4cccnc4)c3)n2)n1 [Example 21], the chromatographic logP rises from 2.21 to 2.64.

Going from c1ccc(-c2ccn(-c3cnn(-c4cccnc4)c3)n2)nc1 [Example 23] to Clc1cccnc1-n1ccc(-c2cnn(-c3cccnc3)c2)n1 [Example 42], the chromatographic logP rises from 1.19 to 1.81.

Going from FC(F)(F)COc1cccc(-c2cnn(-c3cccnc3)c2)n1 [Example 25] to CC(F)(F)c1cccc(-c2cnn(-c3cccnc3)c2)n1 [Example 29], the chromatographic logP falls from 2.96 to 2.46.

Compared with Cc1nn(-c2cccnc2)cc1-n1ccc(C(F)(F)F)n1 [Example 26], FC(F)(F)c1ccc(-n2ccc(-c3cnn(-c4cccnc4)c3)n2)nc1 [Example 43] is higher in chromatographic logP: 2.51 for the first, 3.22 for the second.

First: CC(C)(C)OC(=O)Nc1cccc(-c2cnn(-c3cccnc3)c2)n1 [Example 27]
Second: COC(OC)c1cccc(-c2cnn(-c3cccnc3)c2)n1 [Example 45]
The chromatographic logP of the first is higher: 2.87 for the first, 1.75 for the second.

Going from COc1ccnc(-n2ccc(-c3cnn(-c4cccnc4)c3)n2)n1 [Example 28] to c1cnc(-n2ccc(-c3cnn(-c4cccnc4)c3)n2)nc1 [Example 33], the chromatographic logP falls from 1.71 to 1.33.

Compared with Fc1cnc(-n2ccc(-c3cnn(-c4cccnc4)c3)n2)nc1 [Example 31], CC(F)(F)c1ccc(-c2cnn(-c3cccnc3)c2)nc1 [Example 40] is higher in chromatographic logP: 1.52 for the first, 2.04 for the second.

Compared with c1cncc(-c2cnn(-c3cccnc3)c2)c1 [Example 39], COc1cc(OC)nc(-c2nccc(-c3cnn(-c4cccnc4)c3)n2)n1 [Example 44] is higher in chromatographic logP: 0.39 for the first, 1.56 for the second.

Same assay, conditions: HCOOH, logP (HCOOH)

FC(F)(F)C(F)(F)c1nccc(-c2cnn(-c3cccnc3)c2)n1 [Example 9, 2-(Pentafluoroethyl)-4-[1-(pyridin-3-yl)-1H-pyrazol-4-yl]pyrimidine] showed a logP of 2.7.

Same assay, conditions: logP (neutral), neutral

Compound COCC(F)(F)c1cccc(-c2cnn(-c3cccnc3)c2)n1 [Example 11, 2-(1,1-Difluoro-2-methoxyethyl)-6-(1-pyridin-3-yl-1H-pyrazol-4-yl)pyridine] has a logP of 2.3.
